Laboratory results published in US20230042936A1, “PYRIDO[2,3-d]PYRIMIDIN-7(8H)-ONES AS CDK INHIBITORS” (PROSENESTAR LLC, priority 2020, published 2023).
“Also recorded” adds a separate entry of the source.

Key:
[1] = target: CDC7/DBF4 (Homo sapiens, UniProt O00311); experiment: Kinase profiling; assay type: biochemical; settings: 10 semi-logarithmic dilutions from 50 μM, singlicate; read-out: IC50 CDC7/DBF4
[2] = target: CDK6/CycD1 (Homo sapiens, UniProt Q00534); experiment: Kinase profiling; assay type: biochemical; settings: 10 semi-logarithmic dilutions from 50 μM, singlicate
[3] = target: PCTAIRE1/CycY (Homo sapiens, UniProt Q00536); experiment: Kinase profiling; assay type: biochemical; settings: 10 semi-logarithmic dilutions from 50 μM, singlicate
[4] = target: CDK7/CycH/MAT1 (Homo sapiens, UniProt P50613); experiment: Kinase profiling; assay type: biochemical; settings: 10 semi-logarithmic dilutions from 50 μM, singlicate
[5] = target: CDK3/CycE1 (Homo sapiens, UniProt Q00526); experiment: Kinase profiling; assay type: biochemical; settings: 10 semi-logarithmic dilutions from 50 μM, singlicate
[6] = target: CDK19/CycC (Homo sapiens, UniProt Q9BWU1); experiment: Kinase profiling; assay type: biochemical; settings: 10 semi-logarithmic dilutions from 50 μM, singlicate
[7] = target: CDK1/CycB1 (Homo sapiens, UniProt P06493); experiment: Kinase profiling; assay type: biochemical; settings: 10 semi-logarithmic dilutions from 50 μM, singlicate
[8] = target: HIPK2 (Homo sapiens, UniProt Q9H2X6); experiment: Kinase profiling; assay type: biochemical; settings: 10 semi-logarithmic dilutions from 50 μM, singlicate; read-out: IC50 HIPK2
[9] = target: CDK1/CycA2 (Homo sapiens, UniProt P06493); experiment: Kinase profiling; assay type: biochemical; settings: 10 semi-logarithmic dilutions from 50 μM, singlicate
[10] = test system: MDA-MB-231 human breast cancer cells; experiment: Cell cycle analysis (DNA content, flow cytometry); assay type: cell-based; settings: GI50 concentration; FIG. 1
[11] = target: CDK1/CycE1 (Homo sapiens, UniProt P06493); experiment: Kinase profiling; assay type: biochemical; settings: 10 semi-logarithmic dilutions from 50 μM, singlicate
[12] = target: CDK3/CycC (Homo sapiens, UniProt Q00526); experiment: Kinase profiling; assay type: biochemical; settings: 10 semi-logarithmic dilutions from 50 μM, singlicate
[13] = target: DYRK1A (Homo sapiens, UniProt Q13627); experiment: Kinase profiling; assay type: biochemical; settings: 10 semi-logarithmic dilutions from 50 μM, singlicate
[14] = target: CDK12wt/CycK (Homo sapiens, UniProt Q9NYV4); experiment: Kinase profiling; assay type: biochemical; settings: 10 semi-logarithmic dilutions from 50 μM, singlicate
[15] = target: CDK4/CycD3 (Homo sapiens, UniProt P11802); experiment: Kinase profiling; assay type: biochemical; settings: 10 semi-logarithmic dilutions from 50 μM, singlicate
[16] = target: CDK5/p35NCK (Homo sapiens, UniProt Q00535); experiment: Kinase profiling; assay type: biochemical; settings: 10 semi-logarithmic dilutions from 50 μM, singlicate
[17] = target: CDK6/CycD3 (Homo sapiens, UniProt Q00534); experiment: Kinase profiling; assay type: biochemical; settings: 10 semi-logarithmic dilutions from 50 μM, singlicate
[18] = target: CDK9/CycT1 (Homo sapiens, UniProt P50750); experiment: Kinase profiling; assay type: biochemical; settings: 10 semi-logarithmic dilutions from 50 μM, singlicate
[19] = target: CDK9/CycK (Homo sapiens, UniProt P50750); experiment: Kinase profiling; assay type: biochemical; settings: 10 semi-logarithmic dilutions from 50 μM, singlicate
[20] = target: CDK5/p25NCK (Homo sapiens, UniProt Q00535); experiment: Kinase profiling; assay type: biochemical; settings: 10 semi-logarithmic dilutions from 50 μM, singlicate
[21] = target: T1, DYRK2 (Homo sapiens, UniProt Q92630); experiment: Kinase profiling; assay type: biochemical; settings: 10 semi-logarithmic dilutions from 50 μM, singlicate; read-out: IC50 DYRK2
T1 sequence (Q92630 1-601): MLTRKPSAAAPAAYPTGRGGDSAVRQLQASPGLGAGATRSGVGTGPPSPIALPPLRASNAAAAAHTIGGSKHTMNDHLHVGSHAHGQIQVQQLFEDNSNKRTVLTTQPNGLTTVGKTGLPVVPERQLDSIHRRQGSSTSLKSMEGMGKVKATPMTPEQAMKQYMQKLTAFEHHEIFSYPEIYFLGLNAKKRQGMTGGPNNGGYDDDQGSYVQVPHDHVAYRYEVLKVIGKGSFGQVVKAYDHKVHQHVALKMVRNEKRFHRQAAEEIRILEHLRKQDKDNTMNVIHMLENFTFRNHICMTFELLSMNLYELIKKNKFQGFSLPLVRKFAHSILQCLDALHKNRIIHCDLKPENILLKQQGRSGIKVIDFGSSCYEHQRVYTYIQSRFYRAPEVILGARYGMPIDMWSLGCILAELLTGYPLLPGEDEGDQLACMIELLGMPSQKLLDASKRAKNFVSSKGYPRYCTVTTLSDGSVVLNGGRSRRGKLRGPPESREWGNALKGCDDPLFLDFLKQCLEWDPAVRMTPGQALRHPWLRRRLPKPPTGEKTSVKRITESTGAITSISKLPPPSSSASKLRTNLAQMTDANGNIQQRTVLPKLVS

[22] = target: PIM1 (Homo sapiens, UniProt P11309); experiment: Kinase profiling; assay type: biochemical; settings: 10 semi-logarithmic dilutions from 50 μM, singlicate
[23] = target: CDK2/CycE1 (Homo sapiens, UniProt P24941); experiment: Kinase profiling; assay type: biochemical; settings: 10 semi-logarithmic dilutions from 50 μM, singlicate
[24] = target: ERK1 (Homo sapiens, UniProt P27361); experiment: Kinase profiling; assay type: biochemical; settings: 10 semi-logarithmic dilutions from 50 μM, singlicate
[25] = target: CDK2/CycA2 (Homo sapiens, UniProt P24941); experiment: Kinase profiling; assay type: biochemical; settings: 10 semi-logarithmic dilutions from 50 μM, singlicate
[26] = target: CDK8/CycC (Homo sapiens, UniProt P49336); experiment: Kinase profiling; assay type: biochemical; settings: 10 semi-logarithmic dilutions from 50 μM, singlicate

CDK9/CycT1, sequence (P50750 whole entry): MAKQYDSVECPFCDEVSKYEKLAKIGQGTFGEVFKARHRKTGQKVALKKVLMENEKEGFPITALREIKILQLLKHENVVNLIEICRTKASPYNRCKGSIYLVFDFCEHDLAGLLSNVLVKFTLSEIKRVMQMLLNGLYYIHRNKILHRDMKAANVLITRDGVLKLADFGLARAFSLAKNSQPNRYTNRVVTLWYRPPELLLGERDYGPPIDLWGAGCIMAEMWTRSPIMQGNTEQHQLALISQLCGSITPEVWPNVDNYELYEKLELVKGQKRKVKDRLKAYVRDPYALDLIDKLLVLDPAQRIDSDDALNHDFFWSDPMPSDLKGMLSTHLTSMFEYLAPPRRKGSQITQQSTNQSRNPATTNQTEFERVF
CDK9/CycT1, sequence (O60563 whole entry partner): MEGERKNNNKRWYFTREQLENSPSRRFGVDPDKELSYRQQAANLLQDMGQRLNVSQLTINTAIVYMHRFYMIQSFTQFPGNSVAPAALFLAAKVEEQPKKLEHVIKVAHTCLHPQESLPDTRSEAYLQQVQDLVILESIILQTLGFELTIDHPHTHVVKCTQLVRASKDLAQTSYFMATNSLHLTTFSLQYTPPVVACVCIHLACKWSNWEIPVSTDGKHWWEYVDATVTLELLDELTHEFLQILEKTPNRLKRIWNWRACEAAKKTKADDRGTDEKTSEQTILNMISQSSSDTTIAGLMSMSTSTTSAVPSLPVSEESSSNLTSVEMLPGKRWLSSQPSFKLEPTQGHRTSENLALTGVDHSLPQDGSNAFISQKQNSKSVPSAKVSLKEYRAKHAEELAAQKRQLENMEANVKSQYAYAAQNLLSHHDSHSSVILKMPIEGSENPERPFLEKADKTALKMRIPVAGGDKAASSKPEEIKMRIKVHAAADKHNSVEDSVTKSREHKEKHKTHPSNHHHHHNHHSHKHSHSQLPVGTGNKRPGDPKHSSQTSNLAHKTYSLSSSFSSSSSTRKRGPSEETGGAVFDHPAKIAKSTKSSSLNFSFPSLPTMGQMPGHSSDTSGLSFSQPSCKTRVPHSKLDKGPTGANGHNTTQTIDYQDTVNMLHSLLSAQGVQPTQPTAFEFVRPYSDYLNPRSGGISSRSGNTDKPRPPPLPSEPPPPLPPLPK
CDK9/CycK, sequence (P50750 whole entry): as the sequence (P50750 whole entry) above
CDK9/CycK, sequence (O75909 whole entry partner): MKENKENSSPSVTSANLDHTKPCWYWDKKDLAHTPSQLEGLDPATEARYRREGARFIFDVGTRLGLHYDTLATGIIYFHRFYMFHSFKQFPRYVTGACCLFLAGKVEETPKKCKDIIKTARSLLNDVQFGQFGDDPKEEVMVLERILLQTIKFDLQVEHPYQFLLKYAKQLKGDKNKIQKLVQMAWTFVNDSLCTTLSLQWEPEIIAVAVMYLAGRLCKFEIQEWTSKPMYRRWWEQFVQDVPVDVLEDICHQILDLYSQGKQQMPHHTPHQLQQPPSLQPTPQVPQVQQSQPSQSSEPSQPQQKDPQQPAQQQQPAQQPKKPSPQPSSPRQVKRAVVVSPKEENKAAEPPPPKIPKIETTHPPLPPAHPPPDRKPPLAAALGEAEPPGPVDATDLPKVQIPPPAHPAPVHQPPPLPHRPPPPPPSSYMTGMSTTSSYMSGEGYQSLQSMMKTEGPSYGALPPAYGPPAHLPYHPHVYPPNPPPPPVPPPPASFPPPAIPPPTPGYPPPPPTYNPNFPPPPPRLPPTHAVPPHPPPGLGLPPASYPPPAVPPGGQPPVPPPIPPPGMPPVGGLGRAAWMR
CDK3/CycE1, sequence (Q00526 whole entry): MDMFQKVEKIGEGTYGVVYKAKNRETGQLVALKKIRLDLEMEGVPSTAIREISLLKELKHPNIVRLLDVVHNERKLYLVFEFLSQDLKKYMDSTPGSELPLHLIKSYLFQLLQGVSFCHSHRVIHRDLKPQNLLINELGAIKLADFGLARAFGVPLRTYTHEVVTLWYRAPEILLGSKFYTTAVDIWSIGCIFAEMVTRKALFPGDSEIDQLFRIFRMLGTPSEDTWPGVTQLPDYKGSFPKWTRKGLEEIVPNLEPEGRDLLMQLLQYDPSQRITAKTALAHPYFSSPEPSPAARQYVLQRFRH
CDK3/CycE1, sequence (P24864 whole entry partner): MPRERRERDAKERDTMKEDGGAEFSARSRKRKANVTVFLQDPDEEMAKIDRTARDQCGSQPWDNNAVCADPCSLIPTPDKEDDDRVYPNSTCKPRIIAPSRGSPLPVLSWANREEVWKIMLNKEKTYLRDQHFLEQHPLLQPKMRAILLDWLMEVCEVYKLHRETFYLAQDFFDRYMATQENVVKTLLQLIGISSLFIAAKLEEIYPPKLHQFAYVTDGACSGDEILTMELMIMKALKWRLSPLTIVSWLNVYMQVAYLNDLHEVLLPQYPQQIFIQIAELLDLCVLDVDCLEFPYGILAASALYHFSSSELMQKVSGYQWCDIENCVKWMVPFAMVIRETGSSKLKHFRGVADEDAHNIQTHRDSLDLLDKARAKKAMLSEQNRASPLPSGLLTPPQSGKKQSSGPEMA
CDK3/CycC, sequence (Q00526 whole entry): as the sequence (Q00526 whole entry) above
CDK3/CycC, sequence (P24863 whole entry partner): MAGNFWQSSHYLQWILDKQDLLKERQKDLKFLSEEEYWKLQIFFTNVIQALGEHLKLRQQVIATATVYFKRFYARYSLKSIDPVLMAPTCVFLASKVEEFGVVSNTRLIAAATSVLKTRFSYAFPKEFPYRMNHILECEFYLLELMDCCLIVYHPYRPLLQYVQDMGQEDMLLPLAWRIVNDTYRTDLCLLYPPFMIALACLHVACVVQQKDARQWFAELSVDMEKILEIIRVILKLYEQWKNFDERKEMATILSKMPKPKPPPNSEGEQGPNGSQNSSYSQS
PIM1, sequence (P11309 whole entry, species assumed): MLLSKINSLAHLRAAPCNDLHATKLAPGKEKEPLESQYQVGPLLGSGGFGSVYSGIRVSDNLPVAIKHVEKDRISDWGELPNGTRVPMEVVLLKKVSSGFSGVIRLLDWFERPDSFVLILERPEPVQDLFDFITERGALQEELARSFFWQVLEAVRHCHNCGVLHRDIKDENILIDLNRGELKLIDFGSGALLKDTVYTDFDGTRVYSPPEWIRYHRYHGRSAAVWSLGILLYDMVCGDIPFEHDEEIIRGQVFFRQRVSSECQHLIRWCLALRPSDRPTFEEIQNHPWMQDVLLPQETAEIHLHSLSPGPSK
ERK1, sequence (P27361 whole entry): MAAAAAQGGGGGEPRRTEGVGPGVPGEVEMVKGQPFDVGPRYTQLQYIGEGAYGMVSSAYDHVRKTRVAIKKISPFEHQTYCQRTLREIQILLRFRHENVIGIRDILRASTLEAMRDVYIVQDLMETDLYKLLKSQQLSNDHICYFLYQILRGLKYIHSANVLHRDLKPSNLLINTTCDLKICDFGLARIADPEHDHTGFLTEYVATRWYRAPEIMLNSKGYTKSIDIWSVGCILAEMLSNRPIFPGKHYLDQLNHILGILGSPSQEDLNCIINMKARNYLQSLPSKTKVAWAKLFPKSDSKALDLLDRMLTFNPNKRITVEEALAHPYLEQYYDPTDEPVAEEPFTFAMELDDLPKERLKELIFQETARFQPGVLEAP
CDK19/CycC, sequence (Q9BWU1 whole entry): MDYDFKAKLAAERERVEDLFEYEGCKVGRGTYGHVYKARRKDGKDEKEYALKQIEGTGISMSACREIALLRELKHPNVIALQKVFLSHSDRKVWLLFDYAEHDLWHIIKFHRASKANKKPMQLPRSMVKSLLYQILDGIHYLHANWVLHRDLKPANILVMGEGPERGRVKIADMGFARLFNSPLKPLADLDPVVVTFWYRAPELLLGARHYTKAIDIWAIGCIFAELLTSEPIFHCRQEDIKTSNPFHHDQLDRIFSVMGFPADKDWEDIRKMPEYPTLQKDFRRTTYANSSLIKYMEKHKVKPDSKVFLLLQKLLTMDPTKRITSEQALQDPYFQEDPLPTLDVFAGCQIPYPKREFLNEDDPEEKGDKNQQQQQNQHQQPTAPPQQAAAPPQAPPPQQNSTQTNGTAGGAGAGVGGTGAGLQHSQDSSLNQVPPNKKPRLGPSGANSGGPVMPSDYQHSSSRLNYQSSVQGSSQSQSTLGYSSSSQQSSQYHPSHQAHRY
CDK19/CycC, sequence (P24863 whole entry partner): as the sequence (P24863 whole entry partner) above
CDK4/CycD3, sequence (P11802 whole entry): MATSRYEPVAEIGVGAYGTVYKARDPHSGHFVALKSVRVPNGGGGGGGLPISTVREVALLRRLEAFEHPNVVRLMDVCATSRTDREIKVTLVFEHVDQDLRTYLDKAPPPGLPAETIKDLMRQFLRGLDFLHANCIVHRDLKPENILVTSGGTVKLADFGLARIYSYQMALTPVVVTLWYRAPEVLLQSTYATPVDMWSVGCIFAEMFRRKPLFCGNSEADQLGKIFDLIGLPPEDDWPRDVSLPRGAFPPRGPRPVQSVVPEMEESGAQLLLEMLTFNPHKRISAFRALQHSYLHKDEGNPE
CDK4/CycD3, sequence (P30281 whole entry partner): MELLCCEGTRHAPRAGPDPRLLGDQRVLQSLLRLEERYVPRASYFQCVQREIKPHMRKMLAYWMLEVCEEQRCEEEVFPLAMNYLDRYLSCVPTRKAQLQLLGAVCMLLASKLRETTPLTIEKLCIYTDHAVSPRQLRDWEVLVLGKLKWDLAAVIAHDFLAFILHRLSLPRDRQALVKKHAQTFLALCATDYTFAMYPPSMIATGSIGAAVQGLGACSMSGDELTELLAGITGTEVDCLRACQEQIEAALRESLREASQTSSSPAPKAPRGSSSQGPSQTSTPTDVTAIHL

SMILES | IC50 [1] [nM] | IC50 [2] [nM] | IC50 [3] [nM] | IC50 [4] [nM] | IC50 [5] [nM] | IC50 [6] [nM] | IC50 [7] [nM] | IC50 [8] [nM] | IC50 [9] [nM] | cell cycle arrest by DNA content [10] | IC50 [11] [nM] | IC50 [12] [nM] | IC50 [13] [nM] | IC50 [14] [nM] | IC50 [15] [nM] | IC50 [16] [nM] | IC50 [17] [nM] | IC50 [18] [nM] | IC50 [19] [nM] | IC50 [20] [nM] | also measured
CC(=O)c1c(C)c2cnc(Nc3ccc(N4CCC(CCCO)CC4)cc3)nc2n([C@@H]2CC3CCC2C3)c1=O (stereo partly drawn) [PS008, 6-acetyl-8-((2R)-bicyclo[2.2.1]heptan-2-yl)-2-((4-(4-(3-hydroxypropyl)piperidin-1-yl)phenyl)amino)-5-methylpyrido[2,3-d]pyrimidin-7(8H)-one] | > 50000 | 19.5 | 35900 | 11800 | 25900 | 25700 | 721 | 5580 | 39100 | induced accumulation of cells in G0/G1 | 3040 | 1860 | 11800 | 28100 | 261 | 3680 | 672 | 175 | 67.5 | 9430 | IC50 [21]: 9240 nM; IC50 [22]: > 50000 nM; IC50 [23]: 3640 nM; IC50 [24]: 949 nM; IC50 [25]: 3520 nM; IC50 [26]: 27300 nM
CC(=O)c1c(C)c2cnc(Nc3ccc(N4CCC(CCCO)CC4)cc3)nc2n(C2CCCC2)c1=O [PS009, 6-acetyl-8-cyclopentyl-2-((4-(4-(3-hydroxypropyl)piperidin-1-yl)phenyl)amino)-5-methylpyrido[2,3-d]pyrimidin-7(8H)-one] | > 50000 | 13 | > 50000 | 30800 | 17100 | 36400 | 32500 | > 50000 | > 50000 | induced accumulation of cells in G0/G1; also recorded: arrested cells predominantly in G1 | 19700 | 7660 | > 50000 | 17400 | 55.4 | 1860 | 125 | 193 | 56 | 4850 | IC50 [21]: > 50000 nM; IC50 [22]: > 50000 nM; IC50 [23]: 2940 nM; IC50 [24]: 48900 nM; IC50 [25]: 768 nM; IC50 [26]: > 50000 nM
CC(=O)c1c(C)c2cnc(Nc3ccc(N4CCNCC4)cc3)nc2n([C@@H]2CC3CCC2C3)c1=O (stereo partly drawn) [PS010, 6-acetyl-8-((2R)-bicyclo[2.2.1]heptan-2-yl)-5-methyl-2-((4-(piperazin-1-yl)phenyl)amino)pyrido[2,3-d]pyrimidin-7(8H)-one] | 13500 | 1.83 | 4310 | 2030 | 700 | 2850 | 2050 | 187 | 4210 | accumulation of cells both in G1 and G2/M phases | 1440 | 170 | 3650 | 799 | 5.48 | 113 | 21.2 | 36.6 | 12 | 395 | cell death (sub-G1 accumulation) [10]: led to cell death; IC50 [21]: 1260 nM; IC50 [22]: 8140 nM; IC50 [23]: 276 nM; IC50 [24]: 22100 nM; IC50 [25]: 222 nM; IC50 [26]: 16800 nM
O=c1ccc2cnc(Nc3ccc(N4CCC(OCC5(CO)COC5)CC4)cc3)nc2n1[C@@H]1CC2CCC1C2 (stereo partly drawn) [PS016, 8-((2R)-bicyclo[2.2.1]heptan-2-yl)-2-((4-(4-((3-(hydroxymethyl)oxetan-3-yl)methoxy)piperidin-1-yl)phenyl)amino)pyrido[2,3-d]pyrimidin-7(8H)-one] | 1980 | 7.42 | 2020 | 2370 | 93.4 | 2790 | 614 | > 50000 | 1360 | induced G2/M arrest | 527 | 555 | 28800 | 339 | 20.8 | 255 | 33.3 | 92.5 | 46.9 | 652 | IC50 [21]: 19700 nM; IC50 [22]: 40100 nM; IC50 [23]: 71.7 nM; IC50 [24]: 10700 nM; IC50 [25]: 49.7 nM; IC50 [26]: 37.9 nM
